According to patent publication US8629177B2, “Nanoencapsulated delta-9-tetrahydrocannabinol” (Aphios Corporation, priority 2010, dated 2014):
Like-named read-outs stand apart in the source and are kept apart here.

Legend:
Fischer rats = details: cited from earlier work
[1] = Stability of Δ9-THC in collection buffer compositions and at different pH; assay type: physicochemical
Description: (§1) Stability Studies: Shelf stability studies were conducted with Δ9-THC, Δ9-THC polymer nanospheres and formulations of the aforementioned. The following tests were performed: (i) physical appearance; and (ii) Δ9-THC content and integrity. Statistical analysis of the data sets were performed using SYSTAT®.
The composition of the buffer was determined from stability studies with Δ9-THC at different conditions. […] Stability experiments were also conducted with Δ9-THC at pH=4, 7 and 10. […] Experiments were also used to determine that a low concentration of PVA was adequate for […] and minimizing foaming in the collection buffer. The buffer was deareated to remove dissolved oxygen since Δ9-THC is very sensitive to oxygen. A 10% sucrose buffer was utilized based on prior experimental data for this and other projects to preserve particle integrity after lyophilization. Prior to lyophilization, these products were placed in a −80° C. freezer until they were frozen solid. Samples were then lyophilized for a 24 hour period. These samples were reconstituted in distilled, degasified water and were analyzed using HPLC and particle size analysis via dynamic light scattering. After lyophilization, particle sizes of THC-19 and THC-21 were reduced to 287 and 230 nm respectively, and the recovery efficiencies were 77% and 95% respectively.

[2] = 6-week stability of nanoencapsulated and naked Δ9-THC at 4, 25 and 40° C.; assay type: physicochemical; details: 4° C., 25° C. and 40° C.
Description: as §1
Stability studies were conducted on polymer nanoencapsulated Δ9-THC (THC-12-1) and naked Δ9-THC samples over a 6-week period at 4° C., 25° C. and 40° C.

## CCCCCc1cc(O)c2c(c1)OC(C)(C)[C@@H]1CCC(C)=C[C@@H]21 [Δ9-THC, delta-9-tetrahydrocannabinol]
Fischer rats; females, orally, sesame oil vehicle
  LD50: 730 mg/kg
Fischer rats; males, females, i.v.
  LD50: 40 mg/kg
Fischer rats; males, females, inhalation, corrected
  LD50 corrected for particulate losses and pulmonary adsorption: 42 mg/kg
Fischer rats; males, females, inhalation
  LD50: 105.7 mg/kg
Fischer rats; males, orally, sesame oil vehicle
  LD50: 1,270 mg/kg
Fischer rats; males, orally, sesame oil, 1% polysorbate 80, saline emulsion
  LD50: 800 mg/kg
[1]; pH 4, 7, 10 compared
  stability at pH=4, 7 and 10: most stable at pH=4
[1]; six day study, 40% ethanol
  stability in 10% sucrose/0.1% PVA solution with 40% ethanol: stable if 40% ethanol is introduced
[1]; six day study, PVA-sucrose solution without sufficient ethanol (0%, 20%, 30%)
  stability in 10% sucrose/0.1% PVA solution: degrades in the PVA-sucrose solution
[2]; 6-week period
  degradation by temperature: degrades almost equally at each temperature
[2]; after 6 weeks
  degradation after 6 weeks: most of the Δ9-THC is degraded
